≈ marks a conversion by molar mass, not a printed value. Where two headings read alike, the source gives them in different places.
Experiments:
[1] = Phase 1 open-label study in pediatric pcJIA patients: pharmacokinetics at steady state (Day 7); format: in vivo, human; conditions: for AUC / half-life: human, plasma, oral; for AUC / half-life / AUC0-24, geometric mean / CLss/F, geometric mean / CLss/F_adjusted (adjusted for bioavailability), geometric mean: Day 7; for AUC: read-out: AUCtau, geometric mean; for half-life: read-out: Functional t1/2, harmonic mean (converted)
Procedure: (§1) Part 1 was a multiple-dose, open-label, multiple-cohort study. Two sequential multiple-ascending dose levels (Low Dose and High Dose levels) were evaluated in the 12 to <18 years age group (Group 1), and one dose level (Low Dose) was evaluated in the two younger age groups (Group 2: 6 to <12 years, and Group 3: 2 to <6 years). Low Dose and High Dose cohorts in age group 1 enrolled 9 subjects each.
(§2) The study enrolled at least 10 subjects below 30 kg. Recruitment of subjects was conducted through a staggered approach based on age. […] Part 3 was an additional safety cohort. […] Part 3 was open to age groups in which Part I enrollment was completed. […] Doses were adjusted during the study for any of the body weight categories after review of results from the subjects who completed Study Part 1.
In Part 1, the dose was administered according to three body weight categories. Subjects were categorized based on age group, and the dose administered for seven consecutive days will be based on three different body weight categories per dose level shown in Table 2.
Patients (N=51) diagnosed with pcJIA were enrolled into one of four groups in an open-label, multiple-dose study (Group 1, 12 to <18 years, low dose; Group 2, 12 to <18 years, high dose; Group 3, 6 to <12 years, low dose; Group 4, 2 to <6 years, low dose). […] Pharmacokinetic assessment was performed at steady state on Study Day 7, after which all patients might continue the study with low dose.

[2] = Phase 1 open-label study in pediatric subjects with severe atopic dermatitis: pharmacokinetics on Day 7; format: in vivo, human; conditions: for half-life / Cmax: human, plasma, oral; for half-life: read-out: t1/2, harmonic mean (pseudo standard deviation) (converted)
Procedure: (§3) This was an open-label, multiple-dose study. AD patients (N=35) were enrolled into four cohorts (Cohort 1, 6 to <12 years with low dose; Cohort 2, 6 to <12 years with high dose; Cohort 3, 2 to <6 years with low dose; Cohort 4, 2 to <6 years with high dose). […] PK was evaluated on Day 7 post first dose. Safety was evaluated throughout the study. Exploratory efficacy parameters were collected at specified timepoints.
(§4) Part 1 was a multiple-dose, open-label, multiple-cohort study that consisted of two sequential multiple-ascending dose groups (Low Dose and High Dose levels) in the two age groups. (Group 1: 6 to <12 years and Group 2: 2 to <6 years).
There was one additional subject who was enrolled in Cohort 3 but withdrew informed consent before PK assessment. This subject was therefore not included in PK analyses.

[3] = test system: pediatric subjects with severe atopic dermatitis; assay: Phase 1 open-label study in pediatric subjects with severe atopic dermatitis: efficacy (vIGA-AD, EASI); format: in vivo, human; conditions: Week 12 (as observed)
Procedure: as §3
During Part 2 of the study, concomitant topical medications for AD were allowed during the study per investigator discretion.
No formal statistical comparisons were planned.

[4] = Solubility of upadacitinib in different aqueous media at 37° C.; format: physicochemical; conditions: 50 mM carbonate buffer, pH 9.11
Source text: For pediatric use, an oral solution was developed to improve acceptability (palatability and swallowability), stability, and manufacturability. […] Thus, low pH buffers such as citrate, phosphate, tartrate, and formate are suitable to prepare the oral solution. […] Citrate buffer was selected because it has favorable pKa (˜3.1), which is close to the final pH of the oral solution.

[5] = test system: pediatric patients with pcJIA; assay: Phase 1 open-label study in pediatric pcJIA patients: safety (adverse events)
Procedure: as §1, §2
This was an interim analysis.
(§5) This interim analysis includes all available pharmacokinetic and safety data and efficacy data collected through Week 48, excluding patients enrolled in the long-term safety cohort.

[6] = test system: pediatric subjects with severe atopic dermatitis; assay: Phase 1 open-label study in pediatric subjects with severe atopic dermatitis: safety
Procedure: as §3, §4

[7] = test system: pediatric patients with pcJIA; assay: Phase 1 open-label study in pediatric pcJIA patients: efficacy (JIA ACR, JADAS-27, C-HAQ);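 note: values come from an interim analysis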
Procedure: Based on these parameters, the following composite efficacy endpoints were evaluated: • JIA ACR pediatric 30/50/70/90/100 responses • Change from Baseline in JADAS10/27/71 responses, as well as JADAS-based criteria for low disease activity and remission (if deemed useful and appropriate).
This was an interim analysis.
as §5

[8] = Population pharmacokinetic analyses of upadacitinib exposure in adults / adult RA patients; conditions: for median average plasma exposure over a dosing interval: adult RA patients; for AUC0-24 at steady state, model-estimated: adults
Procedure: In Part 1, the dose was administered according to three body weight categories.
The doses selected for this study account for the difference in oral bioavailability between the extended-release tablet formulation and the oral solution. […] Doses were adjusted during the study for any of the body weight categories after review of results from the subjects who completed Part 1.

[9] = pcJIA Group 3: 6 to <12 years, low dose, BID solution
[10] = pcJIA Group 4: 2 to <6 years, low dose, BID solution
[11] = pcJIA Group 1: 12 to <18 years, low dose, QD tablet
[12] = pcJIA Group 2: 12 to <18 years, high dose, QD tablet
[13] = pcJIA Group 3: 6 to <12 years, low dose, QD tablet
[14] = pcJIA Group 3: 6 to <12 years, low dose, tablet and solution combined
[15] = AD Cohort 1: 6 to <12 years, Low Dose, IR Solution, Day 7
[16] = AD Cohort 2: 6 to <12 years, High Dose, ER Tablet, Day 7
[17] = AD Cohort 2: 6 to <12 years, High Dose, IR Solution, Day 7
[18] = AD Cohort 3: 2 to <6 years, Low Dose, IR Solution, Day 7
[19] = AD Cohort 4: 2 to <6 years, High Dose, IR Solution, Day 7
[20] = Enrollment on or after protocol v4.0, N 7
[21] = Enrollment up to protocol v3.0, N 20

CC[C@@H]1CN(C(=O)NCC(F)(F)F)C[C@@H]1c1cnc2cnc3[nH]ccc3n12 [upadacitinib, (3S,4R)-3-ethyl-4-(3H-imidazo[1,2-a]pyrrolo[2,3-e]pyrazin-8-yl)-N-(2,2,2-trifluoroethyl)pyrrolidine-1-carboxamide]
AUC [1, 9]: 198 ng·h/mL | half-life [1, 9]: 2.39 h | AUC [1, 10]: 184 ng·h/mL | half-life [1, 10]: 2.33 h | Median AUC0-24 ([1]; pcJIA Group 1 (12 to <18 years), low-dose level): 278 ng·h/mL | AUC0-24, geometric mean [1, 11]: 269 ng·h/mL | CLss/F, geometric mean [1, 11]: 55.7 L/h | CLss/F_adjusted (adjusted for bioavailability), geometric mean [1, 11]: 38.1 L/h | Median AUC0-24 ([1]; pcJIA Group 2 (12 to <18 years), high-dose level): 547 ng·h/mL | AUC0-24, geometric mean [1, 12]: 553 ng·h/mL | CLss/F, geometric mean [1, 12]: 46.5 L/h | CLss/F_adjusted (adjusted for bioavailability), geometric mean [1, 12]: 31.8 L/h | CLss/F_adjusted (adjusted for bioavailability), geometric mean [1, 9]: 19.7 L/h | AUC0-24, geometric mean [1, 13]: 318 ng·h/mL | CLss/F, geometric mean [1, 13]: 41.6 L/h | CLss/F_adjusted (adjusted for bioavailability), geometric mean [1, 13]: 28.5 L/h | AUC0-24, geometric mean [1, 14]: 346 ng·h/mL | CLss/F_adjusted (adjusted for bioavailability), geometric mean [1, 14]: 24.7 L/h | Median AUC0-24 ([1]; pcJIA Group 4 (2 to <6 years), low-dose level): 360 ng·h/mL | CLss/F_adjusted (adjusted for bioavailability), geometric mean [1, 10]: 15.0 L/h | apparent oral clearance in relation to bodyweight ([1]; pcJIA patients): increased in pcJIA patients with increasing bodyweight | CLss/F, geometric mean (mean, % CV) ([2]; AD Cohort 1: 6 to <12 years, Low Dose, ER Tablet, Day 7): 31.5 (34.2, 48) L/h | CLss/F, geometric mean (mean, % CV) [2, 15]: 19.3 (20.2, 31) L/h | CLss/F, geometric mean (mean, % CV) [2, 16]: 39.1 (42.3, 37) L/h | CLss/F, geometric mean (mean, % CV) [2, 17]: 23.0 (23.6, 27) L/h | CLss/F, geometric mean (mean, % CV) [2, 18]: 15.6 (18.6, 52) L/h | CLss/F, geometric mean (mean, % CV) [2, 19]: 20.7 (23.6, 66) L/h | half-life [2, 15]: 2.35 h | half-life [2, 16]: 4.93 h | half-life [2, 17]: 1.68 h | Cmax ([2]; AD Cohort 2: 6 to <12 years, high dose, Day 7 (Example 4), read-out: Geometric mean Cmax at steady-state): 95.5 ng/mL | half-life [2, 18]: 1.67 h | Cmax ([2]; AD Cohort 4: 2 to <6 years, High Dose, IR Solution, Day 7, read-out: Cmax, geometric mean (mean, % CV)): 96.9 ng/mL | half-life [2, 19]: 2.25 h | Cmax ([2]; AD Cohort 4: 2 to <6 years, high dose, Day 7 (Example 4), read-out: Geometric mean Cmax at steady-state): 101 ng/mL | EASI 75, Responder ([3]; Age 2 to <6 years, N 12): 9 (75.0) n (%) | vIGA-AD of 0 or 1 with at least two grades of reduction from baseline, Responder ([3]; Age 2 to <6 years, N 12): 3 (25.0) n (%) | EASI 75, Responder ([3]; Age 6 to <12 years, N 15): 10 (66.7) n (%) | vIGA-AD of 0 or 1 with at least two grades of reduction from baseline, Responder ([3]; Age 6 to <12 years, N 15): 6 (40.0) n (%) | EASI 75, Responder [3, 20]: 7 (100) n (%) | vIGA-AD of 0 or 1 with at least two grades of reduction from baseline, Responder [3, 20]: 3 (42.9) n (%) | EASI 75, Responder [3, 21]: 12 (60.0) n (%) | vIGA-AD of 0 or 1 with at least two grades of reduction from baseline, Responder [3, 21]: 6 (30.0) n (%) | EASI 75, Responder ([3]; Overall, N 27): 19 (70.4) n (%) | vIGA-AD of 0 or 1 with at least two grades of reduction from baseline, Responder ([3]; Overall, N 27): 9 (33.3) n (%) | solubility [4]: 199 ± 6 µg/mL (≈ 523 µM) | patients reporting serious AEs or AEs leading to treatment discontinuation ([5]; pcJIA part 1, through 7 days): no patients | patients reporting adverse events (AEs) ([5]; pcJIA part 1, through 7 days, 8 out of 51 patients): 15.7% | patients reporting AEs ([5]; pcJIA part 2 and part 3, 52 out of 57 patients): 91.2% | AE of special interest: neutropenia ([5]; pcJIA part 2 and part 3, n=2/57): 3.5% | AE of special interest: hepatic disorder ([5]; pcJIA part 2 and part 3, n=3/57): 5.3% | AE of special interest: elevated creatine phosphokinase ([5]; pcJIA part 2 and part 3, n=6/57): 10.5% | patients reporting AEs leading to treatment discontinuation ([5]; pcJIA, 12 to <18 years of age group, 2 of 19): 10.5% | patients reporting serious AEs ([5]; pcJIA, 12 to <18 years of age group, six out of 19): 31.6% | uveitis events ([5]; pcJIA, during the study): no uveitis events occurred | deaths ([5]; pcJIA, interim analysis): No deaths occurred | overall safety and tolerability ([5]; pediatric patients with pcJIA): safe and well tolerated | discontinuation of upadacitinib due to adverse event ([6]; AD Part 2, n=3): 9.7% | most common AEs ([6]; children with severe AD): COVID infection, headache, and abdominal discomfort | new safety risks compared to the known safety profile ([6]; children with severe AD): No new safety risks were identified | overall safety and tolerability ([6]; children with severe AD): generally safe and well tolerated | C-HAQ, Change from Baseline Mean ([…]% CI) ([7]; Week 12, Overall): −0.45 (−0.63, −0.27) | C-HAQ, Change from Baseline Median (Min, Max) ([7]; Week 12, Overall): −0.38 (−1.9, 1.1) | ESR, Change from Baseline Median (Min, Max) ([7]; Week 12, Overall): −4.0 (−41, 26) ^ | Patient/Parent Global Assessment of Overall Well Being (VAS), Change from Baseline Median (Min, Max) ([7]; Week 12, Overall): −26.0 (−81, 37) ^ | Physician's Global Assessment of Disease Activity (VAS), Change from Baseline Median (Min, Max) ([7]; Week 12, Overall): −49.0 (−100, 9) ^ | Total Number of Active Joints, Change from Baseline Median (Min, Max) ([7]; Week 12, Overall): −8.0 (−25, 0) ^ | C-HAQ, Change from Baseline Mean ([…]% CI) ([7]; Week 12, age 2 to <6 years): −0.31 (−0.77, 0.15) | C-HAQ, Change from Baseline Median (Min, Max) ([7]; Week 12, age 2 to <6 years): −0.38 (−1.3, 1.1) | ESR, Change from Baseline Median (Min, Max) ([7]; Week 12, age 2 to <6 years): −7.0 (−39, 2) ^ | Patient/Parent Global Assessment of Overall Well Being (VAS), Change from Baseline Median (Min, Max) ([7]; Week 12, age 2 to <6 years): −38.0 (−81, 37) ^ | Physician's Global Assessment of Disease Activity (VAS), Change from Baseline Median (Min, Max) ([7]; Week 12, age 2 to <6 years): −49.0 (−72, −25) | Total Number of Active Joints, Change from Baseline Median (Min, Max) ([7]; Week 12, age 2 to <6 years): −6.0 (−12, −3) | C-HAQ, Change from Baseline Mean ([…]% CI) ([7]; Week 12, age 6 to <12 years): −0.64 (−0.95, −0.34) | C-HAQ, Change from Baseline Median (Min, Max) ([7]; Week 12, age 6 to <12 years): −0.38 (−1.9, 1.1) | ESR, Change from Baseline Median (Min, Max) ([7]; Week 12, age 6 to <12 years): −4.0 (−41, 7) ^ | Patient/Parent Global Assessment of Overall Well Being (VAS), Change from Baseline Median (Min, Max) ([7]; Week 12, age 6 to <12 years): −29.0 (−61, 9) ^ | Physician's Global Assessment of Disease Activity (VAS), Change from Baseline Median (Min, Max) ([7]; Week 12, age 6 to <12 years): −55.0 (−100, −28) | Total Number of Active Joints, Change from Baseline Median (Min, Max) ([7]; Week 12, age 6 to <12 years): −8.0 (−24, −4) | C-HAQ, Change from Baseline Mean ([…]% CI) ([7]; Week 12, age 12 to <18 years): −0.33 (−0.58, −0.09) | C-HAQ, Change from Baseline Median (Min, Max) ([7]; Week 12, age 12 to <18 years): −0.31 (−1.1, 0.5) | ESR, Change from Baseline Median (Min, Max) ([7]; Week 12, age 12 to <18 years): −2.5 (−17, 26) ^ | Patient/Parent Global Assessment of Overall Well Being (VAS), Change from Baseline Median (Min, Max) ([7]; Week 12, age 12 to <18 years): −23.0 (−45, 8) ^ | Physician's Global Assessment of Disease Activity (VAS), Change from Baseline Median (Min, Max) ([7]; Week 12, age 12 to <18 years): −41.0 (−94, 9) ^ | Total Number of Active Joints, Change from Baseline Median (Min, Max) ([7]; Week 12, age 12 to <18 years): −9.0 (−25, 0) ^ | median average plasma exposure over a dosing interval ([8]; 15 mg QD extended-release formulation): 15.1 ng/mL | median average plasma exposure over a dosing interval ([8]; 30 mg QD extended-release formulation): 30.0 ng/mL | Median AUC0-24 at steady state (5th, 95th percentile) ([8]; adult patients with RA, phase 3 trials, 15 mg ER tablet daily): 358 (234, 701) ng·h/mL | AUC0-24 at steady state, model-estimated ([8]; multiple 15 mg QD doses): 362 ng·h/mL | AUC0-24 at steady state, model-estimated ([8]; multiple 30 mg QD doses): 720 ng·h/mL

From patent US20240316042A1 (AbbVie Inc., priority 2023, published 2024)
